Assay results reported in patent USRE43802E1, “α- and β-amino acid hydroxyethylamino sulfonamides useful as retroviral protease inhibitors” (G.D. Searle LLC, priority 1992, dated 2012).

Each molecule was assayed on CEM cells (assay: Intrinsic toxicity of test compound in uninfected CEM cells (MTT)). Conditions: Table 21.
Format: cell-based
Text: Methods, 20, 309-321 (1988).

| SMILES | TD50 (nM) |
| --- | --- |
| COc1ccc(S(=O)(=O)N(CC(C)C)C[C@@H](O)[C@H](Cc2ccccc2)NC(=O)c2ccccc2)cc1 [Example 28] | 213,000 nM |
| COc1ccc(S(=O)(=O)N(CC(C)C)C[C@@H](O)[C@H](Cc2ccccc2)NC(=O)c2ccccc2C)cc1 [Example 29] | 196,000 nM |
| COc1ccc(S(=O)(=O)N(CC(C)C)C[C@@H](O)[C@H](Cc2ccccc2)NC(=O)c2ccccc2Cl)cc1 [Example 30] | 154,000 nM |

Each molecule was assayed against T1, HIV protease (Human immunodeficiency virus type 1 group M subtype B, UniProt P04585) (assay: HIV protease enzyme assay (fluorescence, substrate 2-Ile-Nle-Phe(p-NO2)-Gln-ArgNH2)). Conditions: Table 19B; @ 1 uM.
T1 construct: HIV protease is diluted in the assay buffer to a final enzyme concentration of 12.3 nanomolar, based on a molecular weight of 10,780
Format: biochemical
Procedure: The enzyme method is described below. […] The positive control is MVT-101 (Miller, M. et al, Science, 246, 1149 (1989)] The assay conditions are as follows:
Assay buffer: 20 mM sodium phosphate, pH 6.4 20% glycerol 1 mM EDTA 1 mM DTT 0.1% CHAPS
The above described substrate is dissolved in DMSO, then diluted 10 fold in assay buffer. Final substrate concentration in the assay is 80 μM.
The final concentration of DMSO is 14% and the final concentration of glycerol is 18%. The test compound is dissolved in DMSO and diluted in DMSO to 10× the test concentration; 10 μl of the enzyme preparation is added, the materials mixed and then the mixture is incubated at ambient temperature for 15 minutes. The enzyme reaction is initiated by the addition of 40 μl of substrate. The increase in fluorescence is monitored at 4 time points (0, 8, 16 and 24 minutes) at ambient temperature. Each assay is carried out in duplicate wells.

| SMILES | IC50 (uM) or % inhib: % inhib @ 1 uM [%] |
| --- | --- |
| CC(C)CCN(C[C@@H](O)[C@H](Cc1ccccc1)NC(=O)OCc1ccccc1)S(C)(=O)=O [Table 1a Entry 41] | 24 |
| CC(C)CCN(C[C@@H](O)[C@H](Cc1ccccc1)NC(=O)OCc1ccccc1)S(=O)(=O)C(F)(F)F [Table 1a Entry 50] | 42 |
| CC(C)CN(C[C@@H](O)[C@H](Cc1ccccc1)NC(=O)OCc1ccccc1)S(C)(=O)=O [Table 1a Entry 51] | 31 |
| CC(C)CCN(C[C@@H](O)[C@H](Cc1ccccc1)NC(=O)OCc1ccccc1)S(=O)(=O)CCl [Table 1a Entry 52] | 39 |
| CC(C)CCN(C[C@@H](O)[C@H](Cc1ccccc1)NC(=O)C(NC(=O)CN(C)C)C(C)(C)C)S(C)(=O)=O (stereo partly shown) [Table 3 Entry 2] | 38 |

Same assay, conditions: Table 19B; @ 1.0 uM (second value of the cell)

| SMILES | IC50 (uM) or % inhib: % inhib @ 1.0 uM [%] |
| --- | --- |
| CC(C)CCN(C[C@@H](O)[C@H](Cc1ccccc1)NC(=O)C(NC(=O)CN(C)C)C(C)(C)C)S(C)(=O)=O (stereo partly shown) [Table 3 Entry 2] | 90 |

Same assay, conditions: Table 19B; @ 10 uM

| SMILES | IC50 (uM) or % inhib: % inhib @ 10 uM [%] |
| --- | --- |
| CC(C)CCN(C[C@@H](O)[C@H](Cc1ccccc1)NC(=O)OCc1ccccc1)S(C)(=O)=O [Table 1a Entry 41] | 74 |
| CC(C)CCN(C[C@@H](O)[C@H](Cc1ccccc1)NC(=O)OCc1ccccc1)S(=O)(=O)C(F)(F)F [Table 1a Entry 50] | 89 |
| CC(C)CN(C[C@@H](O)[C@H](Cc1ccccc1)NC(=O)OCc1ccccc1)S(C)(=O)=O [Table 1a Entry 51] | 76 |
| CC(C)CCN(C[C@@H](O)[C@H](Cc1ccccc1)NC(=O)OCc1ccccc1)S(=O)(=O)CCl [Table 1a Entry 52] | 81 |

Same assay, conditions: Table 19B; HIV protease enzyme assay; read-out: IC50 (uM) or % inhib: IC50

| SMILES | IC50 [µM] |
| --- | --- |
| CCCS(=O)(=O)N(CCC(C)C)C[C@@H](O)[C@H](Cc1ccccc1)NC(=O)OCc1ccccc1 [Table 1a Entry 40] | 0.21 |
| CC(C)CN(C[C@@H](O)[C@H](Cc1ccccc1)NC(=O)OCc1ccccc1)S(=O)(=O)C=Cc1ccccc1 [Table 1a Entry 53] | 0.049 |
| C=CS(=O)(=O)N(CC(C)C)C[C@@H](O)[C@H](Cc1ccccc1)NC(=O)OCc1ccccc1 [Table 1a Entry 55] | 0.1 |
| CCC(C)CN(C[C@@H](O)[C@H](Cc1ccccc1)NC(=O)OCc1ccccc1)S(=O)(=O)c1ccc(OC)cc1 (stereo partly shown) [Table 1a Entry 56] | 0.0036 |
| CCC(C)C(NC(=O)OCc1ccccc1)C(=O)N[C@@H](Cc1ccccc1)[C@H](O)CN(CCC(C)C)S(=O)(=O)c1ccccc1 (stereo partly shown) [Table 3 Entry 4] | 0.0024 |
| CC(C)CCN(C[C@@H](O)[C@H](Cc1ccccc1)NC(=O)[C@@H](NC(=O)OCc1ccccc1)C(C)C)S(=O)(=O)c1ccccc1 [Table 5 Entry 1] | 0.0014 |
| CC(C)CCN(C[C@@H](O)[C@H](Cc1ccccc1)NC(=O)[C@H](CC(N)=O)NC(=O)OCc1ccccc1)S(=O)(=O)c1ccccc1 [Table 5 Entry 14] | 0.0022 |
| CC(C)CCN(C[C@@H](O)[C@H](Cc1ccccc1)NC(=O)[C@@H](NC(=O)OCc1ccccc1)C(C)(C)C)S(=O)(=O)c1ccccc1 [Table 5 Entry 22] | 0.0018 |
| C=CCOC(=O)N[C@@H](Cc1ccccc1)[C@H](O)CN(CC(C)C)S(=O)(=O)c1ccc(OC)cc1 [Table 5 Entry 33] | 0.0044 |
| CC(C)CCN(CC(O)C(Cc1ccccc1)NC(=O)C(N)C(C)(C)C)S(=O)(=O)c1ccccc1 (stereo not shown) [Table 11 Entry 1] | 0.13 |
| CC(C)CCN(CC(O)C(Cc1ccccc1)NC(=O)C(NC(=O)CBr)C(C)(C)C)S(=O)(=O)c1ccccc1 (stereo not shown) [Table 12 Entry 10] | 0.0033 |
| CSC(C)(C)[C@H](NC(=O)CN(C)C)C(=O)N[C@@H](Cc1ccccc1)[C@H](O)CN(CCC(C)C)S(=O)(=O)c1ccccc1 [Table 14 Entry 3] | 0.0049 |

Same assay, conditions: Table 20; @ 1 μM

| SMILES | IC50 (uM) or % inhibition: % inhibition @ 1 μM [% @ 1 μM] |
| --- | --- |
| COc1ccc(S(=O)(=O)N(CC(C)C)CC(O)C(Cc2ccccc2)NC(=O)c2ccccc2CS(C)(=O)=O)cc1 (stereo not shown) [Table 5A Entry 20] | 85 |
| COc1ccc(S(=O)(=O)N(CC(C)C)CC(O)C(Cc2ccccc2)NC(=O)c2ccc(CS(C)(=O)=O)cc2)cc1 (stereo not shown) [Table 5A Entry 22] | 63 |

Same assay, conditions: Table 20; @ 10 μM

| SMILES | IC50 (uM) or % inhibition: % inhibition @ 10 μM [% @ 10 μM] |
| --- | --- |
| COc1ccc(S(=O)(=O)N(CC(C)C)CC(O)C(Cc2ccccc2)NC(=O)c2ccccc2S(C)(=O)=O)cc1 (stereo not shown) [Table 5A Entry 17] | 59 |

Same assay, conditions: Table 20; HIV protease enzyme assay; read-out: IC50 (uM) or % inhibition: IC50

| SMILES | IC50 [µM] |
| --- | --- |
| COc1ccc(S(=O)(=O)N(CC(C)C)CC(O)C(Cc2ccccc2)NC(=O)C2CCCC2)cc1 (stereo not shown) [Table 5A Entry 1] | 0.04 |
| CCc1ccccc1C(=O)NC(Cc1ccccc1)C(O)CN(CC(C)C)S(=O)(=O)c1ccc(OC)cc1 (stereo not shown) [Table 5A Entry 13] | 0.0098 |
| COc1ccc(S(=O)(=O)N(CC(C)C)CC(O)C(Cc2ccccc2)NC(=O)c2cccc(C)c2C)cc1 (stereo not shown) [Table 5A Entry 16] | 0.008 |
| COc1ccc(S(=O)(=O)N(CC(C)C)CC(O)C(Cc2ccccc2)NC(=O)c2cccc(S(C)(=O)=O)c2)cc1 (stereo not shown) [Table 5A Entry 18] | 0.13 |
| COc1ccc(S(=O)(=O)N(CC(C)C)CC(O)C(Cc2ccccc2)NC(=O)c2ccc(S(C)(=O)=O)cc2)cc1 (stereo not shown) [Table 5A Entry 19] | 0.092 |
| CC(C)CN(CC(O)C(Cc1ccccc1)NC(=O)c1ccccc1)S(=O)(=O)c1ccccc1 (stereo not shown) [Table 5A Entry 24] | 0.047 |

Same assay, conditions: Table 21; HIV protease enzyme assay; read-out: IC50

| SMILES | IC50 [µM] |
| --- | --- |
| CC(C)CN(C[C@@H](O)[C@H](Cc1ccccc1)NC(=O)OCc1cncs1)S(=O)(=O)c1cccc(N)c1 [Example 64] | 0.007 |
| Cc1c(O)cccc1C(=O)N[C@@H](Cc1ccccc1)[C@H](O)CN(CC(C)C)S(=O)(=O)c1cccc(N)c1 [Example 65] | 0.004 |
| CC(C)CN(C[C@@H](O)[C@H](Cc1ccccc1)NC(=O)OCc1cccnc1)S(=O)(=O)c1ccc2c(c1)CCO2 [Example 66] | 0.004 |
| CC(C)CN(C[C@@H](O)[C@H](Cc1ccccc1)NC(=O)OCc1cncs1)S(=O)(=O)c1ccc2c(c1)CCO2 [Example 67] | 0.005 |
| Cc1c(N)cccc1C(=O)N[C@@H](Cc1ccccc1)[C@H](O)CN(CC(C)C)S(=O)(=O)c1ccc2c(c1)CCO2 [Example 68] | 0.007 |
| CC(C)CN(C[C@@H](O)[C@H](Cc1ccccc1)NC(=O)OCc1cccnc1)S(=O)(=O)c1ccc2c(c1)OCO2 [Example 69] | 0.004 |
| CC(C)CN(C[C@@H](O)[C@H](Cc1ccccc1)NC(=O)OCc1cncs1)S(=O)(=O)c1ccc2c(c1)OCO2 [Example 70] | 0.005 |
| Cc1c(N)cccc1C(=O)N[C@@H](Cc1ccccc1)[C@H](O)CN(CC(C)C)S(=O)(=O)c1ccc2c(c1)OCO2 [Example 71] | 0.005 |
| Cc1cc(O)ccc1C(=O)N[C@@H](Cc1ccccc1)[C@H](O)CN(CC(C)C)S(=O)(=O)c1ccc2c(c1)OCO2 [Example 72] | 0.005 |
| Cc1c(O)cccc1C(=O)N[C@@H](Cc1ccccc1)[C@H](O)CN(CC(C)C)S(=O)(=O)c1ccc2c(c1)OCO2 [Example 73] | 0.004 |
| COc1ccc(S(=O)(=O)N(CC(C)C)C[C@@H](O)[C@H](Cc2ccccc2)NC(=O)COc2c(C)cccc2C)cc1 [Example 74] | 0.003 |
| COc1ccc(S(=O)(=O)N(CC(C)C)C[C@@H](O)[C@H](Cc2ccccc2)NC(=O)COc2ccccc2C)cc1 [Example 75] | 0.008 |
| COc1ccc(S(=O)(=O)N(CC(C)C)C[C@@H](O)[C@H](Cc2ccccc2)NC(=O)c2ccc3nc(N)sc3c2)cc1 [Example 76] | 0.005 |
| CC(C)CN(C[C@@H](O)[C@H](Cc1ccccc1)NC(=O)OCc1ccccc1)S(=O)(=O)c1ccc2nc(N)sc2c1 [Example 77] | 0.002 |
| CC(C)CN(C[C@@H](O)[C@H](Cc1ccccc1)NC(=O)COc1ccccc1)S(=O)(=O)c1ccc2ncsc2c1 [Example 78] | 0.003 |
